Results taken from patent US10450288B2, “Hydroxy formamide derivatives and their use” (GLAXOSMITHKLINE INTELLECTUAL PROPERTY (NO.2) LIMITED, priority 2014, dated 2019).

These compounds were tested on human cardiac fibroblasts (assay: Cell-based inhibition assay of generation of procollagen I C-terminal propeptide (PICP), PICP ELISA). Conditions: Cardiac fibroblast; human cardiac fibroblasts, crowding media, 24 to 48 hr, PICP ELISA of media; read-out: pIC50, PICP cellular inhibition assay (converted).
Method: Cell-Based Inhibition Assay of Generation of Procollagen I C-Terminal Propeptide (PICP) and Mature Collagen:
An adaptation of the collagen deposition assay described by Chen, C. Z. C., et al., British Journal of Pharmacology, 2009, 158, 1196-1209 was used to examine effect of compounds on procollagen I processing and collagen deposition. In the adapted assay, human cardiac fibroblasts were utilized. Processing of procollagen I was determined by a PICP ELISA assay and deposition of mature collagen was determined by immunostaining.
Human cardiac fibroblasts were cultured and maintained until passage 6 in FGM-3 media (Lonza, #CC-3132) in a 37° C. humidified incubator with 5% CO2. They were then seeded in 96-well black wall, clear bottom plates at 10,000 to 15,000 cells per well in eagle's minimum essential media (EMEM, ATCC #30-2003) containing 10% fetal bovine serum (FBS, Life Technologies #10082147), 1% Glutamax (Life Technologies #35050061) and 1% Penicillin and Streptomycin (Life Technologies #15070063). These cultures were placed in 37° C. incubator. The next day, media were removed by aspiration and cells were rinsed with phosphate buffered saline. Crowding media (also called ficoll media) was prepared by adding 112.5 mg/ml of ficoll70 and 75 mg/ml ficoll400 (GE healthcare #17-0310-10 and 17-0300-10, respectively), 100 μM ascorbic acid, 1% Glutamax and 1% Penicillin and Streptomycin to EMEM media. Test compounds (dissolved in DMSO) were diluted into crowding media and then added to the cells. Final concentration of DMSO in crowding media was less than 0.3%. Cells were treated for 24 to 48 hr in a 37° C. incubator. At the end of the treatment period, cell media were collected. The level of PICP in the media were determined by a PICP ELISA assay (Quidel #8003) following the manufacturer's protocol. Potencies of test compounds were calculated by fitting PICP levels, relative to untreated controls, to log (inhibitor) vs. response equation using Graphpad Prism software 5.0 and expressed as pIC50.

With `CCCCC[C@@H](C(=O)NCNC(=O)c1ccc(-c2cc(OCC)cc(C(=O)N[C@@H](CCC(=O)OC)C(=O)OC)c2)o1)[C@@H](CC)N(O)C=O` [Example 48, (S)-dimethyl 2-(3-ethoxy-5-(5-((((R)-2-((R)-1-(N-hydroxyformamido)propyl)heptanamido)methyl)carbamoyl)furan-2-yl)benzamido) pentanedioate] as the compound, how does the IC50 read?
The IC50 was under 3.98 µM.

With `CCCCC[C@@H](C(=O)NCNC(=O)c1ccc(-c2cc(OCC)cc(C(F)(F)C(=O)O)c2)o1)[C@@H](CC)N(O)C=O` [Example 49, 2-(3-ethoxy-5-(5-((((R)-2-((R)-1-(N-hydroxyformamido)propyl)heptanamido)methyl)carbamoyl)furan-2-yl)phenyl)-2,2-difluoroacetic acid] as the compound, how does the IC50 read?
Its IC50 is under 3.98 µM.

Which IC50 does the source give for `CCCCC[C@H](CN(O)C=O)C(=O)NCNC(=O)c1ccc(-c2ccc(F)c(C(=O)OC)c2)o1` [Example 51, (R)-methyl 2-fluoro-5-(5-(((2-((N-hydroxyformamido)methyl)heptanamido)methyl)carbamoyl)furan-2-yl)benzoate] here?
Its IC50 is under 3.98 µM.

`CCCCC[C@H](CN(O)C=O)C(=O)NCNC(=O)c1ccc(-c2cc(OC)cc(OC)c2)o1` [Example 52, (R)-5-(3,5-dimethoxyphenyl)-N-((2-((N-hydroxyformamido)methyl)heptanamido)methyl)furan-2-carboxamide] was tested. Which IC50 did it give?
Its IC50 is under 3.98 µM.

For `CCCCC[C@H](CN(O)C=O)C(=O)NCNC(=O)c1ccc(-c2cc(OC)ccc2OC)o1` [Example 53, (R)-5-(2,5-dimethoxyphenyl)-N-((2-((N-hydroxyformamido)methyl)heptanamido)methyl)furan-2-carboxamide], which IC50 is on record?
Its IC50 is under 3.98 µM.

`CCCCC[C@H](CN(O)C=O)C(=O)NCNC(=O)c1ccc(-c2cccc(C(=O)O)c2OC)o1` [Example 55, (R)-3-(5-(((2-((N-hydroxyformamido)methyl)heptanamido)methyl)carbamoyl)furan-2-yl)-2-methoxybenzoic acid] was tested. Which IC50 did it give?
The IC50 was under 3.98 µM.

Which IC50 does the source give for `CCCCC[C@H](CN(O)C=O)C(=O)NCNC(=O)c1ccc(-c2cccc(C(=O)O)c2F)o1` [Example 59, (R)-2-fluoro-3-(5-(((2-((N-hydroxyformamido)methyl)heptanamido)methyl)carbamoyl)furan-2-yl)benzoic acid] here?
The IC50 was under 3.98 µM.

With `CCCCC[C@H](CN(O)C=O)C(=O)NCNC(=O)c1ccc(-c2cccc(CC(=O)O)c2)o1` [Example 60, (R)-2-(3-(5-(((2-((N-hydroxyformamido)methyl)heptanamido)methyl)carbamoyl)furan-2-yl)phenyl)acetic acid] as the compound, how does the IC50 read?
The IC50 was under 3.98 µM.

Which IC50 does the source give for `CCCCC[C@H](CN(O)C=O)C(=O)NCNC(=O)c1ccc(-c2cccc(C(=O)O)c2C)o1` [Example 61, (R)-3-(5-(((2-((N-hydroxyformamido)methyl)heptanamido)methyl)carbamoyl)furan-2-yl)-2-methylbenzoic acid] here?
Its IC50 is under 3.98 µM.

`CCCCC[C@H](CN(O)C=O)C(=O)NCNC(=O)c1ccc(-c2ccc(O)c(C(=O)O)c2)o1` [Example 62, (R)-2-hydroxy-5-(5-(((2-((N-hydroxyformamido)methyl)heptanamido)methyl)carbamoyl)furan-2-yl)benzoic acid] was tested. Which IC50 did it give?
Its IC50 is under 3.98 µM.

Which IC50 does the source give for `CCCCC[C@H](CN(O)C=O)C(=O)NCNC(=O)c1ccc(-c2ccc(N)c(C(=O)O)c2)o1` [Example 64, (R)-2-amino-5-(5-(((2-((N-hydroxyformamido)methyl)heptanamido)methyl)carbamoyl)furan-2-yl)benzoic acid] here?
The IC50 was under 3.98 µM.

`CCCCC[C@@H](C(=O)NCNC(=O)c1ccc(-c2cccc(C(C)(C)C(=O)O)c2)o1)[C@@H](CC)N(O)C=O` [Example 67, 2-(3-(5-((((R)-2-((R)-1-(N-hydroxyformamido)propyl)heptanamido)methyl)carbamoyl)furan-2-yl)phenyl)-2-methylpropanoic acid] was tested. Which IC50 did it give?
The IC50 was under 3.98 µM.

How did the IC50 turn out when `CCCCC[C@@H](C(=O)NCNC(=O)c1ccc(-c2cc(O)cc(OCC)c2)o1)[C@@H](CC)N(O)C=O` [Example 73, 5-(3-ethoxy-5-hydroxyphenyl)-N-(((R)-2-((R)-1-(N-hydroxyformamido)propyl)heptanamido)methyl)furan-2-carboxamide] was run?
Its IC50 is under 3.98 µM.

With `CCCCC[C@H](CN(O)C=O)C(=O)NCNC(=O)c1ccc(-c2cccc(C(C)C(=O)O)c2)o1` (stereo partly drawn) [Example 76, 2-(3-(5-((((R)-2-((N-hydroxyformamido)methyl)heptanamido)methyl)carbamoyl)furan-2-yl)phenyl)propanoic acid] as the compound, how does the IC50 read?
The IC50 was under 3.98 µM.

Which IC50 does the source give for `CCCCC[C@H](CN(O)C=O)C(=O)NCNC(=O)c1ccc(-c2ccc(F)c(C(=O)O)c2F)o1` [Example 78] here?
The IC50 was under 3.98 µM.

With `CCCCC[C@@H](C(=O)NCNC(=O)c1ccc(-c2cccc(C(=O)N[C@@H](CC(=O)O)C(=O)O)c2)o1)[C@@H](CC)N(O)C=O` [Example 83, (S)-2-(3-(5-((((R)-2-((R)-1-(N-hydroxy-formamido)propyl)heptamido)methyl)carbamoyl)furan-2-yl)benzamido) succinic acid] as the compound, how does the IC50 read?
Its IC50 is under 3.98 µM.

Which IC50 does the source give for `CCCCC[C@@H](C(=O)NCNC(=O)c1ccc(-c2cc(OCC)cc(C(=O)N[C@H](CC(=O)O)C(=O)O)c2)o1)[C@@H](CC)N(O)C=O` [Example 84, (R)-2-(3-ethoxy-5-(5-((((R)-2-((R)-1-(N-hydroxy-formamido)propyl)heptanamido)methyl)carbamoyl)furan-2-yl)benzamido) succinic acid] here?
The IC50 was under 3.98 µM.

`CCCCC[C@@H](C(=O)NCNC(=O)c1ccc(-c2cc(OCC)cc(C(=O)NCC(=O)O)c2)o1)[C@@H](CC)N(O)C=O` [Example 85, 2-(3-ethoxy-5-(5-((((R)-2-((R)-1-(N-hydroxy-formamido)propyl)heptanamido)methyl)carbamoyl)furan-2-yl)benzamido) acetic acid] was tested. Which IC50 did it give?
The IC50 was under 3.98 µM.

How did the IC50 turn out when `CCCCC[C@@H](C(=O)NCNC(=O)c1ccc(-c2cc(OCC)cc(C(=O)N(CC(=O)O)CC(=O)O)c2)o1)[C@@H](CC)N(O)C=O` [Example 87, 2,2′-((3-ethoxy-5-(5-((((R)-2-((R)-1-(N-hydroxy-formamido)propyl)heptanamido)methyl)carbamoyl)furan-2-yl)benzoyl)azanediyl) diacetic acid] was run?
The IC50 was under 3.98 µM.

How did the IC50 turn out when `CCCCC[C@@H](C(=O)NCNC(=O)c1ccc(-c2cc(OCC)cc(C(=O)NC(CO)(CO)CO)c2)o1)[C@@H](CC)N(O)C=O` [Example 88, 5-(3-((1,3-dihydroxy-2-(hydroxymethyl)propan-2-yl)carbamoyl)-5-ethoxyphenyl)-N—(((R)-2-((R)-1-(N-hydroxyformamido)propyl)heptanamido)methyl)furan-2-carboxamide] was run?
The IC50 was under 3.98 µM.

Which IC50 does the source give for `CCCCC[C@H](CN(O)C=O)C(=O)NCNC(=O)c1ccc(-c2cccc(C(=O)O)c2)o1` [Example 89, (R)-3-(5-(((2-((N-hydroxyformamido)methyl)heptanamido)methyl)carbamoyl)furan-2-yl)benzoic acid] here?
The IC50 was under 3.98 µM.

Which IC50 does the source give for `CCCCC[C@H](CN(O)C=O)C(=O)NCNC(=O)c1ccc(-c2ccc(F)c(C(=O)O)c2)o1` [Example 91, (R)-2-fluoro-5-(5-(((2-((N-hydroxy-formamido)methyl)heptanamido)methyl)carbamoyl)furan-2-yl)benzoic acid] here?
Its IC50 is under 3.98 µM.

Same assay, conditions: Homo sapiens, Cardiac fibroblast, read-out: pIC50, PICP cellular inhibition assay (converted)

With `CCCCC[C@@H](C(=O)NCNC(=O)c1ccc(-c2cc(OCC)cc(P(=O)(OC)OC)c2)o1)[C@@H](CC)N(O)C=O` [Example 50, dimethyl (3-ethoxy-5-(5-((((R)-2-((R)-1-(N-hydroxyformamido)propyl)heptanamido)methyl)carbamoyl)furan-2-yl)phenyl)phosphonate] as the compound, how does the IC50 read?
The IC50 was under 3.98 µM.

How did the IC50 turn out when `CCCCC[C@@H](C(=O)NCNC(=O)c1ccc(-c2cc(OCC)cc(C(=O)NCC[N+](C)(C)C)c2)o1)[C@@H](CC)N(O)C=O` [Example 65, 2-(3-ethoxy-5-(5-((((R)-2-((R)-1-(N-hydroxyformamido)propyl)heptanamido)methyl)carbamoyl)furan-2-yl)benzamido)-N,N,N-trimethylethanaminium hydroxide] was run?
The IC50 was under 3.98 µM.

Which IC50 does the source give for `CCCCC[C@@H](C(=O)NCNC(=O)c1ccc(-c2ccc(F)c(CC(=O)O)c2)o1)[C@@H](CC)N(O)C=O` [Example 70, 2-(2-fluoro-5-(5-((((R)-2-((R)-1-(N-hydroxyformamido)propyl)heptanamido)methyl)carbamoyl)furan-2-yl)phenyl)acetic acid] here?
Its IC50 is under 3.98 µM.

Which IC50 does the source give for `CCCCC[C@@H](C(=O)NCNC(=O)c1ccc(-c2ccc(C(=O)O)cc2)o1)[C@@H](CC)N(O)C=O` [Example 71, 4-(5-((((R)-2-((R)-1-(N-hydroxyformamido)propyl)heptanamido)methyl)carbamoyl)furan-2-yl)benzoic acid] here?
Its IC50 is under 3.98 µM.

For `CCCCC[C@@H](C(=O)NCNC(=O)c1ccc(-c2cc(CC(=O)O)cc(OCC)c2)o1)[C@@H](CC)N(O)C=O` [Example 72, 2-(3-ethoxy-5-(5-((((R)-2-((R)-1-(N-hydroxyformamido)propyl)heptanamido)methyl)carbamoyl)furan-2-yl)phenyl)acetic acid], which IC50 is on record?
Its IC50 is under 3.98 µM.
